# According to patent publication US11241013B2, “Benzimidazole compounds as agricultural chemicals” (REDAG CROP PROTECTION LTD, priority 2017, dated 2022):
# Tests used:
# Assay type in all cases: cell-based
# Pythium ultimum = experiment: Amended agar assay; design: key to % control Pythium ultimum 2 ppm / % control Pythium ultimum 20 ppm: D: no control detected at this concentration; C: up to 50% control; B: from 50 to 99% control; A: a control of greater than 99%, i.e. no detectable colony growth; details: amended PDA agar, % reduction in colony growth vs control plate, 18° C.; for inhibition of growth at 2 ppm / inhibition of growth at 20 ppm: Globisporangium ultimum
# Protocol: Testing was carried out on potato dextrose agar (PDA) amended with each compound at a test concentration of typically 20 ppm or 2 ppm. Amended agar was poured into three replicate 9 cm petri dishes. Each replicate dish was inoculated in the centre with a 5 mm agar plug taken from the leading edge of a culture aged between 2 and 7 days old; the age of the culture was dependant on the growth rate of the pathogen being tested. The test pathogens were Pythium ultimum and Phytophthora cinnamomi. Plates were incubated at 18° C. and the diameter of each colony measured before growth on the fastest growing plate reached the plate edge. This varied between 2 and 7 days depending on the growth rate of test pathogens. The % reduction in colony growth compared to the control plate was calculated for each pathogen. The results are provided in Table 1, in which D represents no control detected at this concentration; C represents up to 50% control; B from 50 to 99% control; and A represents a control of greater than 99%, i.e. no detectable colony growth.
# Alternatively, or in addition, the same assay was conducted at descending test concentrations with 5-fold dilutions typically down to 0.032 ppm though sometimes as low as 0.00026 ppm, and an EC50 (the concentration at which 50% control would be achieved) was determined. The results are provided in Table 1 in which G represents no control detected at 20 ppm, F represents an EC50 of ≥20 ppm and E represents an EC50 of less than 20 ppm.
# Phytophthora cactorum [1] = experiment: 96 well plate test; design: key: G: no control detected at 20 ppm; F: an EC50 of ≥20 ppm; an EC50 of less than 20 ppm; details: 96 well plate assay, agar amended to 20, 2, 0.2 and 0.02 ppm, assessed after 2 to 3 days
# Protocol: (§1) Compounds were screened in 96 well plates with 10 compounds per plate. Each compound was screened using agar amended to 20, 2, 0.2 and 0.02 ppm, with proline at 50 and 10 ppm and 0.2% DMSO used as controls. Each test concentration and standard was replicated twice on a plate. Compounds were screened against Phytophthora cactorum. The agar used in the test is a 1% potato dextrose agar. 1000 spores/mL agar were added to the appropriate agar. A ×10 stock solution in 2% DMSO was produced for each dose i.e. 200, 20, 2 and 0.2 ppm, and 10 μl of this added to the appropriate wells on the plate. An equivalent amount of 2% DMSO and proline stock at 500 and 100 ppm were added for the controls. To each well 90 μl of the appropriate agar spore suspension was added to give the required final well concentrations. Plates were incubated at room temperature (18° C.) and assessed after 2 to 3 days. The amount of pathogen growth in each well was compared to the DMSO controls and an EC50 concentration was calculated. The results are provided in Table 1 in which H represents no control detected at 20 ppm, G represents no control detected at 2 ppm (where the highest test concentration in the assay was 2 ppm), F represents an EC50 of ≥20 ppm, E represents an EC50 of less than 20 ppm.
# Phytophthora cactorum [2] = experiment: 96 well plate test; details: 96 well plate assay, agar amended to 20, 2, 0.2 and 0.02 ppm, assessed after 2 to 3 days, read-out: EC50 Phytophthora spp. (Phytophthora cactorum)
# Protocol: as §1
Compound,EC50 Phytophthora spp. (Phytophthora cactorum) (Phytophthora cactorum [1]),EC50 (Phytophthora cactorum [2]) [µg/mL],inhibition of growth at 2 ppm (Pythium ultimum) [%],also measured
Nc1cccc(COc2nc3ccccc3n2-c2ncncc2Cl)n1 [Example 9],H,–,< 50,–
Cn1nnnc1-n1c(OCc2cccnc2)nc2ccccc21 [Example 18],H,–,< 50,–
Cn1nnnc1-n1c(OCCc2ccccn2)nc2ccccc21 [Example 25],H,–,< 50,–
"CN(C)c1cccc(COc2nc3ccccc3n2-c2nnnn2C)n1 [Example 49, N,N-Dimethyl-6-(((1-(1-methyl-1H-tetrazol-5-yl)-1H-benzo[d]imidazol-2-yl)oxy)methyl)pyridin-2-amine]",H,–,–,% control Pythium ultimum 2 ppm (Pythium ultimum): D
"Cn1nnnc1-n1c(COc2ccccn2)nc2ccccc21 [Example 34, 1-(1-Methyl-1H-tetrazol-5-yl)-2-((pyridin-2-yloxy)methyl)-1H-benzo[d]imidazole]",H,–,–,% control Pythium ultimum 2 ppm (Pythium ultimum): D
Cn1nnnc1-n1c(OCc2ccncc2)nc2ccccc21 [Example 19],H,–,< 50,–
Cn1nnnc1-n1c(OCc2cccnn2)nc2ccccc21 [Example 21],H,–,–,inhibition of growth at 20 ppm (Pythium ultimum; 20 ppm): 50 to 99%; % control Pythium ultimum 2 ppm (Pythium ultimum): D
Cn1nnnc1-n1c(OCc2ccncn2)nc2ccccc21 [Example 7],–,< 20,> 99,–
Cn1nnnc1-n1c(OCc2cccc(NCCc3ccccc3)n2)nc2ccccc21 [Example 39],–,< 20,> 99,–
Cc1cccnc1COc1nc2ccccc2n1-c1nnnn1C [Example 3],–,≥ 20,50 to 99,inhibition of growth at 20 ppm (Pythium ultimum; 20 ppm): > 99%
Cn1ccc(CNc2cccc(COc3nc4ccccc4n3-c3nnnn3C)n2)n1 [Example 45],–,< 20,> 99,–
Cn1nnnc1-n1c(OCc2ncccn2)nc2ccccc21 [Example 2],H,–,–,% control Pythium ultimum 20 ppm (Pythium ultimum; 20 ppm): D
"Cn1nnnc1-n1c(OCc2cccc(-c3ccccc3)n2)nc2ccccc21 [Example 32, 1-(1-Methyl-1H-tetrazol-5-yl)-2-((6-phenylpyridin-2-yl)methoxy)-1H-benzo[d]imidazole]",H,–,< 50,–
Cc1c(OCC(F)(F)F)ccnc1COc1nc2ccccc2n1-c1nnnn1C [Example 14],–,< 20,> 99,inhibition of growth at 20 ppm (Pythium ultimum; 20 ppm): > 99%
CC(C)CCNc1cccc(COc2nc3ccccc3n2-c2nnnn2C)n1 [Example 37],–,< 20,> 99,–
Cc1ccc(COc2nc3ccccc3n2-c2nnnn2C)nc1 [Example 6],–,≥ 20,> 99,inhibition of growth at 20 ppm (Pythium ultimum; 20 ppm): > 99%
COc1c(C)cnc(COc2nc3ccccc3n2-c2ncncc2Cl)c1C [Example 24],–,< 20,50 to 99,–
Cn1nnnc1-n1c(OCc2cccc(NCc3ccccn3)n2)nc2ccccc21 [Example 40],–,< 20,> 99,–
Cn1nnnc1-n1c(OCc2nccs2)nc2ccccc21 [Example 16],–,≥ 20,< 50,–
"CNc1cccc(COc2nc3ccccc3n2-c2nnnn2C)n1 [Example 48, N-Methyl-6-(((1-(1-methyl-1H-tetrazol-5-yl)-1H-benzo[d]imidazol-2-yl)oxy)methyl)pyridin-2-amine]",–,< 20,> 99,–

# More lines, main results first:
EC50 Phytophthora spp. (Phytophthora cactorum) (Phytophthora cactorum [1]),EC50 (Phytophthora cactorum [2]) [µg/mL],Compound,inhibition of growth at 2 ppm (Pythium ultimum) [%],also measured
H,–,Cn1nnnc1-n1c(OCc2ccc(N)cn2)nc2ccccc21 [Example 57],–,% control Pythium ultimum 2 ppm (Pythium ultimum): D
H,–,COCc1cccc(COc2nc3c(Cl)cccc3n2-c2nnnn2C)n1 [Example 72],< 50,–
H,–,"Cn1nnnc1-n1c(OCc2cccc(S(C)(=O)=O)n2)nc2ccccc21 [Example 58, 1-(1-Methyl-1H-tetrazol-5-yl)-2-((6-(methylsulfonyl)pyridin-2-yl)methoxy)-1H-benzo[d]imidazole]",–,% control Pythium ultimum 2 ppm (Pythium ultimum): D
H,–,COc1cccc(COc2nc3ccccc3n2-c2nnnn2C)n1 [Example 52],–,% control Pythium ultimum 2 ppm (Pythium ultimum): D
H,–,CC(C)CCOc1cccc(COc2nc3ccccc3n2-c2nnnn2C)n1 [Example 53],–,% control Pythium ultimum 2 ppm (Pythium ultimum): D
–,< 20,CCCNc1cccc(COc2nc3c(Cl)cccc3n2-c2nnnn2C)n1 [Example 88],> 99,–
H,–,CSc1cccc(COc2nc3ccccc3n2-c2nnnn2C)n1 [Example 54],–,% control Pythium ultimum 2 ppm (Pythium ultimum): D
–,< 20,Cn1nnnc1-n1c(OCc2cccc(NCc3ccc(Cl)cc3)n2)nc2ccccc21 [Example 84],> 99,–
–,< 20,Cn1nnnc1-n1c(OCc2cccc(NCCc3ccccc3)n2)nc2c(Cl)cccc21 [Example 73],> 99,–
–,< 20,Cc1cccc(CNc2cccc(COc3nc4c(Br)cccc4n3-c3nnnn3C)n2)c1 [Example 102],50 to 99,–
–,< 20,Cn1nnnc1-n1c(OCc2cccc(NC3CCCC3)n2)nc2ccccc21 [Example 81],> 99,–
–,< 20,COc1cc(F)cc2c1nc(OCc1ccccn1)n2-c1nnnn1C [Example 78],50 to 99,–
–,< 20,Cn1nnnc1-n1c(OCc2nc3ccccc3n2C)nc2c(Cl)cccc21 [Example 66],> 99,–
–,< 20,COCCCOc1ccnc(COc2nc3c(Cl)cccc3n2-c2nnnn2C)c1C [Example 62],> 99,–
–,< 20,Cn1nnnc1-n1c(OCc2cccc(N)n2)nc2c(Cl)cccc21 [Example 59],> 99,–
–,≥ 20,Cn1nnnc1-n1c(OCc2cc([N+](=O)[O-])ccn2)nc2c(Cl)cccc21 [Example 69],50 to 99,–
–,< 20,CC(C)CCCNc1cccc(COc2nc3c(Cl)cccc3n2-c2nnnn2C)n1 [Example 63],> 99,–
–,≥ 20,Cn1nnnc1-n1c(OCc2cccc(CO)n2)nc2c(Cl)cccc21 [Example 71],–,% control Pythium ultimum 2 ppm (Pythium ultimum): D
–,< 20,Cn1nnnc1-n1c(OCc2cccc(NCc3cccc(Cl)c3)n2)nc2ccccc21 [Example 85],> 99,–
–,< 20,"CC(C)Nc1cccc(COc2nc3ccccc3n2-c2nnnn2C)n1 [Example 50, N-Isopropyl-6-(((1-(1-methyl-1H-tetrazol-5-yl)-1H-benzo[d]imidazol-2-yl)oxy)methyl)pyridin-2-amine]",> 99,–
–,< 20,CCCNc1cccc(COc2nc3c(Br)cccc3n2-c2nnnn2C)n1 [Example 99],> 99,–
–,< 20,CCCOc1ccnc(COc2nc3ccccc3n2-c2nnnn2C)c1 [Example 77],> 99,–
–,< 20,Cn1nnnc1-n1c(OCc2cccc(NCc3ccccc3Cl)n2)nc2ccccc21 [Example 92],> 99,–
–,≥ 20,CCOc1ccnc(COc2nc3ccccc3n2-c2nnnn2C)c1 [Example 76],> 99,–
–,< 20,CC(C)CCCNc1cccc(COc2nc3ccccc3n2-c2nnnn2C)n1 [Example 51],> 99,–
